{
  "source": "patent US11524950B2",
  "about": "“Treatment of immune-related and inflammatory diseases” (Celgene Corporation, priority 2012, dated 2022)",
  "key": {"BLIMP-1, XBP-1, and IgJ": {"tested_on": "BLIMP-1, XBP-1, and IgJ", "test": "Plasmablast lineage factor gene expression (qRT-PCR), SLE patient PBMC", "format": "cell-based, human", "conditions": "20 nM, n=3"}, "CD44": {"tested_on": "CD44", "test": "CD44 expression in B cell differentiation culture (flow cytometry)", "format": "cell-based, human", "conditions": "Day 7; for percentage of CD20high/CD44high cells: DMSO 22.2%", "experimental": "(§1) Immunophenotyping For Flow Cytometric Analysis: Cells were stained using multicolor direct immunofluorescence stain for flow cytometric analysis. Surface staining was performed before cell fixation and permeabilization. Cells (50 μl; 1×10^6 cells/ml in washing buffer, 2% FBS with 0.1% NaN3 in PBS) were used for each staining. The cells were stained with isotype control mAb ([…]) and multicolor FITC-conjugated anti-CD20 mAb and PE-conjugated anti-CD38 mAb, or PerCP-Cy5.5 conjugated anti-CD44 mAb, PE-conjugated anti-CD83 mAb were used for day 4 activated B cells (CD20+CD38-cells), and day 4 PBs and day 7 PBs (CD20-CD38+), and other staining, analyzed by flow cytometry as per manufacturer's instructions. The intracellular staining of transcription factor proteins (BCL-6, IRF-4, BLIMP-1, PAX-5 and XBP-1) and IgJ was performed according to the manufacturer's recommendations. Flow cytometric analysis was performed with a FACSCanto using FACSDiva 6 (BD Biosciences). For data analysis, Flowjo (Tree Star) software was used.\nUsing the same B cells in vitro differentiation system, the activity of the test compound on CD44 and CD83 expression in B cell differentiation was further investigated. Multicolor FITC-conjugated anti-CD20 mAb, PerCP Cy5.5-conjugated anti-CD44 mAb and PE-conjugated anti-CD83 mAb are used for day 4 and day 7 cells. The effect of the test compound was evaluated from 3 separate experiments representative of 3 donors."}, "BCL-6, IRF-4 and BLIMP-1": {"tested_on": "BCL-6, IRF-4 and BLIMP-1", "test": "Transcription factor protein expression by laser scanning cytometry, SLE patient PBMC", "format": "cell-based, human", "conditions": "CD38+ plasmablast/plasma cells, Day 4 and Day 7 SLE patient PBMC", "experimental": "Preparation Of Cytospin From Single Cell Suspension And Immunofluorescence Staining for iCyte: A cell suspension of not more than 0.5×10^6 cells/ml of 2% FBS-containing PBS was prepared. Up to 200 μl of this suspension was loaded in each cuvette and spinned at 800 rpm for 3 min. The cuvette and the paper were carefully detached without damaging the fresh cytospin and proceeded with either immediate fixation or drying. Unfixed cytospins were stored for max 2 days at room temperature. Cells on slides were fixed with increasing concentrations of EtOH and allowed to dry prior to staining. After blocking non-specific binding with normal serum (species same as secondary antibody), sections were incubated with the mixture of following monoclonal antibodies in a humidified chamber at cool room for overnight: (i) anti-human CD38 as plasmablast cell marker, and (ii) anti-BCL-6, IRF-4, BLIMP-1, PAX5 and XBP-1 for transcription factor proteins. After washings, slides were incubated for 1 hr at room temperature in dark with the mixture of secondary antibodies which were raised in different species (with two different fluorochromes, i.e., Alexa Fluor-488 and Alexa Fluor-633). The slides were then rinsed in PBS, counterstained with DAPI for 20 minutes at room temperature, coverslipped with anti-fade fluorescent mounting medium, and sealed with nail polish. The slides were stored in dark at 4° C. To exclude false positives produced by nonspecific binding of the secondary antibody, all of the tissues were treated in the same manner with buffer substituting for the primary antibody. The color of the antibody staining was observed and quantity was analyzed in the tissue sections using iCyte."}, "IgJ": {"tested_on": "IgJ", "test": "Ig J chain intracellular staining in B cell differentiation culture", "format": "cell-based, human", "experimental": "as §1\nHigh level IgJ chain expression in rheumatoid arthritis (RA) patients predicts lack of response to rituximab."}, "[1]": {"tested_on": "CTGF, PAI-1, COL1A1, TGFB1", "test": "Tsk-1 mouse skin TGF-β pathway gene overexpression (qRT-PCR)", "format": "in vivo", "conditions": "30 mg/kg", "excerpt": "Next, to examine the effect of the compound on the overexpression of TGF-β pathway genes in Tsk-1 mouse skin, qRT-PCR was used to measure mRNA levels for six genes: CTGF, PAI-1, COL1A1, α-smooth muscle actin (ALPHA SMA), cartilage oligomeric protein 1 (COMP), and TGFB1. Overexpression was defined as the excess mRNA levels observed in Tsk-1 mouse skin compared to normal pa/pa mouse skin. […] PAI-1 and TGFB1 gene overexpression was not inhibited by the compound."}, "Tsk-1 mouse": {"tested_on": "Tsk-1 mouse", "test": "Tight skin-1 (Tsk-1) mouse model: hypodermal thickness and hydroxyproline", "format": "in vivo", "conditions": "30 mg/kg", "excerpt": "First, the inhibitory effects of the compound on fibrosis in the Tsk-1 tight skin mouse model were also investigated."}, "[2]": {"conditions": "Tsk-1 vs pa/pa mouse skin mRNA, p≤0.001"}},
  "data": [
    {"smiles": "O=C1CC[C@H](N2Cc3c(OCc4ccc(CN5CCOCC5)cc4)cccc3C2=O)C(=O)N1", "note": "[Test compound, (S)-3-[4-(4-morphlin-4-ylmethylbenzyloxy)-1-oxo-1,3-dihydro-isoindo-2-yl]piperidine-2,6-dione]", "values": [
      {"measurement": "BLIMP-1 gene expression", "setting": "BLIMP-1, XBP-1, and IgJ", "result": "52.8 % of control"},
      {"measurement": "IgJ gene expression", "setting": "BLIMP-1, XBP-1, and IgJ", "result": "13.6 % of control"},
      {"measurement": "XBP-1 gene expression", "setting": "BLIMP-1, XBP-1, and IgJ", "result": "49.2 % of control"},
      {"measurement": "CD44 mean fluorescence intensity (MFI)", "setting": "CD44", "result": "dose-dependently and significantly decreased"},
      {"measurement": "percentage of CD20high/CD44high cells", "setting": "CD44; 2 nM", "result": 18.4, "unit": "%"},
      {"measurement": "percentage of CD20high/CD44high cells", "setting": "CD44; 20 nM", "result": 10.1, "unit": "%"},
      {"measurement": "percentage of CD20high/CD44high cells", "setting": "CD44; 200 nM", "result": 6.6, "unit": "%"},
      {"measurement": "BCL-6 expression", "setting": "BCL-6, IRF-4 and BLIMP-1", "result": "significantly increased"},
      {"measurement": "BLIMP-1 expression", "setting": "BCL-6, IRF-4 and BLIMP-1", "result": "inhibited"},
      {"measurement": "RF-4 expression", "setting": "BCL-6, IRF-4 and BLIMP-1", "result": "inhibited"},
      {"measurement": "BCL-6 expression", "setting": "BCL-6, IRF-4 and BLIMP-1; listed as Compound I-S", "result": "increased"},
      {"measurement": "BLIMP-1 expression", "setting": "BCL-6, IRF-4 and BLIMP-1; listed as Compound I-S", "result": "significantly reduced"},
      {"measurement": "RF-4 expression", "setting": "BCL-6, IRF-4 and BLIMP-1; listed as Compound I-S", "result": "significantly reduced"},
      {"measurement": "MFI of IgJ within the positive cells", "setting": "IgJ", "result": "decreased"},
      {"measurement": "number of IgJ-positive cells", "setting": "IgJ; Day 4, 20 nM, DMSO 13.1%±1.5%", "result": 8.4, "unit": "%"},
      {"measurement": "number of IgJ-positive cells", "setting": "IgJ; Day 4, 200 nM, DMSO 13.1%±1.5%", "result": 5.4, "unit": "%"},
      {"measurement": "Ig J chain expression", "setting": "IgJ; Day 4 B cell differentiation cultures, three donors", "result": "dose-dependently and significantly reduced"},
      {"measurement": "number of IgJ-positive cells", "setting": "IgJ; Day 7, 20 nM, DMSO 14.4%±4.3", "result": 13.2, "unit": "%"},
      {"measurement": "number of IgJ-positive cells", "setting": "IgJ; Day 7, 200 nM, DMSO 14.4%±4.3", "result": 7.2, "unit": "%"},
      {"measurement": "PAI-1 gene overexpression", "setting": "[1]", "result": "not inhibited"},
      {"measurement": "TGFB1 gene overexpression", "setting": "[1]", "result": "not inhibited"},
      {"measurement": "reduction of overexpression of COL1A1", "setting": "[1]; [2]", "result": 129, "unit": "%"},
      {"measurement": "reduction of overexpression of CTGF", "setting": "[1]; [2]", "result": 79, "unit": "%"},
      {"measurement": "reduction of collagen content of the skin (hydroxyproline levels)", "setting": "Tsk-1 mouse", "result": 38, "unit": "%"},
      {"measurement": "reduction of hypodermal thickening", "setting": "Tsk-1 mouse; p≤0.001", "result": 45, "unit": "%"}
    ]}
  ]
}
